Assay results as given in the supplement of paper PMC6045584.
± gives the standard deviation of the averaged measurements.

What was measured:
DASATINIB = compound: Cc1nc(Nc2ncc(C(=O)Nc3c(C)cccc3Cl)s2)cc(N2CCN(CCO)CC2)n1 [DASATINIB]; test: surviving fraction relative to DMSO-only wells; higher = less growth inhibition; settings: exposure time: 5 days
In short: (§1)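 Five days of continuous inhibitor exposure, at 0.5, 1, 5, 10, 50, 100, 500 and 1000 nM, followed a 24-hour period after log-phase tumour cell lines were seeded at 250–500 cells per well in 384-well plates. Surviving fraction was derived from CellTiter-Glo luminescence relative to the median of DMSO-only wells. Plates were read after 10 minutes at room temperature, and lines screened three times were kept only if replicate Pearson r >0.7 and median Z' >0.3.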

SOTRASTAURIN/AEB071 [1] = compound: T1, CN1CCN(c2nc(C3=C(c4c[nH]c5ccccc45)C(=O)NC3=O)c3ccccc3n2)CC1 [SOTRASTAURIN/AEB071]; test: as above; settings: exposure time: 5 days
In short: as §1

[2] = compound: CCn1c(C(=O)N(C2CC2)C2CC2)cc2c3c(ncn3C)c(Nc3cc(C)n(C)n3)nc21; test: area under dose-response curve of surviving fraction (unscaled, Aref=0) (surviving fraction x log10(nM)); higher = more resistant; settings: exposure time: 5 days; dose range 0.5-1000 nM
In short: (§2)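 Surviving fractions were fitted by 3-parameter logistic regression in the drc R package to give dose-response survival curves. They came from tumour cell lines treated for five days with eight inhibitor concentrations from 0.5 to 1000 nM and read by CellTiter-Glo luminescence against DMSO-only wells. The area under the curve is the unscaled activity area. It was calculated over log10 dose with Aref = 0.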

[3] = compound: CNCc1ccc(-c2[nH]c3cc(F)cc4c3c2CCNC4=O)cc1; test: as above; settings: exposure time: 5 days; dose range 0.5-1000 nM
In short: as §2

ABIRATERONE = compound: C[C@]12CC[C@H](O)CC1=CC[C@@H]1[C@@H]2CC[C@]2(C)C(c3cccnc3)=CC[C@@H]12 [ABIRATERONE]; test: as above; settings: exposure time: 5 days; dose range 0.5-1000 nM
In short: as §2

SOTRASTAURIN/AEB071 [4] = compound: T1, SOTRASTAURIN/AEB071; test: as above; settings: exposure time: 5 days; dose range 0.5-1000 nM
In short: as §2

| Test System | surviving fraction (DASATINIB; 0.5 nM) | surviving fraction (DASATINIB; 1 nM) | surviving fraction (DASATINIB; 5 nM) | surviving fraction (DASATINIB; 10 nM) | surviving fraction (DASATINIB; 50 nM) | surviving fraction (DASATINIB; 100 nM) | surviving fraction (DASATINIB; 500 nM) | surviving fraction (DASATINIB; 1000 nM) | surviving fraction (SOTRASTAURIN/AEB071 [1]; 0.5 nM) | surviving fraction (SOTRASTAURIN/AEB071 [1]; 1 nM) | surviving fraction (SOTRASTAURIN/AEB071 [1]; 5 nM) | surviving fraction (SOTRASTAURIN/AEB071 [1]; 10 nM) | surviving fraction (SOTRASTAURIN/AEB071 [1]; 50 nM) | surviving fraction (SOTRASTAURIN/AEB071 [1]; 100 nM) | surviving fraction (SOTRASTAURIN/AEB071 [1]; 500 nM) | surviving fraction (SOTRASTAURIN/AEB071 [1]; 1000 nM) | area under dose-response curve [2] | area under dose-response curve [3] | area under dose-response curve (ABIRATERONE) | area under dose-response curve (SOTRASTAURIN/AEB071 [4]) |
| --- | --- | --- | --- | --- | --- | --- | --- | --- | --- | --- | --- | --- | --- | --- | --- | --- | --- | --- | --- | --- |
| MCF7 BREAST | 0.803 ± 0.048 | 0.798 ± 0.043 | 0.816 ± 0.035 | 0.795 ± 0.019 | 0.787 ± 0.051 | 0.741 ± 0.048 | 0.741 ± 0.028 | 0.739 ± 0.037 | 0.925 ± 0.066 | 0.917 ± 0.043 | 0.945 ± 0.052 | 0.935 ± 0.036 | 0.941 ± 0.036 | 0.941 ± 0.068 | 0.941 ± 0.053 | 0.966 ± 0.017 | 2.83 | 3.04 | 3.3 | 3.11 |
| MDAMB134 BREAST | 0.71 ± 0.023 | 0.687 ± 0.0057 | 0.531 ± 0.013 | 0.534 ± 0.096 | 0.704 ± 0.018 | 0.6445 ± 0.0035 | 0.635 ± 0.019 | 0.606 ± 0.0064 | 0.907 ± 0.16 | 0.994 ± 0.19 | 0.752 ± 0.12 | 0.9 ± 0.011 | 0.913 ± 0.26 | 0.663 ± 0.12 | 0.724 ± 0.1 | 0.74 ± 0.0085 | 3.44 | 2.86 | 3.48 | 2.77 |
| MDAMB157 BREAST | 0.954 ± 0.12 | 0.915 ± 0.021 | 0.775 ± 0.071 | 0.688 ± 0.074 | 0.438 ± 0.025 | 0.35 ± 0.031 | 0.238 ± 0.04 | 0.232 ± 0.038 | 0.923 ± 0.041 | 1 ± 0.048 | 1.07 ± 0.12 | 1.04 ± 0.091 | 1.01 ± 0.03 | 0.971 ± 0.13 | 0.919 ± 0.053 | 0.936 ± 0.031 | 2.94 | 3.13 | 3.17 | 3.23 |
| MDAMB231 BREAST | 0.803 ± 0.011 | 0.794 ± 0.033 | 0.653 ± 0.022 | 0.571 ± 0.02 | 0.25 ± 0.0064 | 0.171 ± 0.0089 | 0.1411 ± 0.0013 | 0.153 ± 0.0031 | 0.955 ± 0.013 | 0.974 ± 0.037 | 1.01 ± 0.022 | 0.984 ± 0.031 | 1 ± 0.046 | 1.02 ± 0.0072 | 1.08 ± 0.033 | 1.05 ± 0.024 | 3.25 | 3.03 | 3.29 | 3.34 |
| MDAMB436 BREAST | 0.793 ± 0.052 | 0.861 ± 0.061 | 0.811 ± 0.091 | 0.826 ± 0.094 | 0.824 ± 0.082 | 0.775 ± 0.057 | 0.783 ± 0.061 | 0.757 ± 0.034 | 0.976 ± 0.12 | 0.96 ± 0.057 | 0.932 ± 0.14 | 0.992 ± 0.13 | 0.943 ± 0.043 | 0.816 ± 0.052 | 0.955 ± 0.073 | 0.952 ± 0.056 | 2.67 | 2.37 | 3.11 | 2.8 |
| MDAMB453 BREAST | 1.03 ± 0.046 | 0.995 ± 0.047 | 1.06 ± 0.018 | 1 ± 0.047 | 1.03 ± 0.025 | 1.02 ± 0.052 | 1 ± 0.036 | 1.02 ± 0.091 | 0.996 ± 0.053 | 0.971 ± 0.081 | 1.01 ± 0.058 | 1 ± 0.076 | 0.915 ± 0.048 | 0.969 ± 0.1 | 0.951 ± 0.014 | 0.895 ± 0.05 | 3.37 | 3.18 | 3.51 | 3.19 |
| MDAMB468 BREAST | 0.872 ± 0.069 | 0.881 ± 0.038 | 0.909 ± 0.028 | 0.836 ± 0.11 | 0.858 ± 0.099 | 0.718 ± 0.065 | 0.488 ± 0.055 | 0.481 ± 0.055 | 0.911 ± 0.041 | 0.9443 ± 0.0091 | 1.02 ± 0.061 | 0.932 ± 0.019 | 0.964 ± 0.09 | 0.964 ± 0.077 | 0.947 ± 0.076 | 0.868 ± 0.053 | 3.4 | 2.75 | 3.46 | 3.12 |
| MFM223 BREAST | 0.778 ± 0.17 | 0.785 ± 0.2 | 0.767 ± 0.18 | 0.684 ± 0.05 | 0.834 ± 0.059 | 0.86 ± 0.1 | 0.788 ± 0.091 | 0.68 ± 0.06 | 1.12 ± 0.12 | 1.18 ± 0.094 | 1.07 ± 0.084 | 1.12 ± 0.076 | 0.849 ± 0.18 | 0.716 ± 0.081 | 0.719 ± 0.038 | 0.711 ± 0.035 | 3.58 | 2.94 | 3.88 | 2.95 |
| MHM BONE | 0.966 ± 0.032 | 0.933 ± 0.058 | 0.846 ± 0.065 | 0.815 ± 0.049 | 0.686 ± 0.011 | 0.635 ± 0.0097 | 0.525 ± 0.0055 | 0.488 ± 0.018 | 1.04 ± 0.022 | 1.04 ± 0.05 | 1.07 ± 0.032 | 1.04 ± 0.046 | 1.11 ± 0.016 | 1.089 ± 0.01 | 1.078 ± 0.0072 | 1.05 ± 0.032 | 3.28 | 3.49 | 3.43 | 3.52 |
| NCIH441 LUNG | 0.994 ± 0.053 | 1.01 ± 0.052 | 0.878 ± 0.085 | 0.921 ± 0.046 | 0.846 ± 0.058 | 0.557 ± 0.056 | 0.462 ± 0.073 | 0.341 ± 0.046 | 1.03 ± 0.069 | 1.03 ± 0.043 | 1.16 ± 0.034 | 0.969 ± 0.072 | 1.02 ± 0.068 | 1 ± 0.022 | 1.07 ± 0.037 | 0.957 ± 0.083 | 3.28 | 3.19 | 3.41 | 3.4 |
| NOS1 BONE | 0.817 ± 0.083 | 0.726 ± 0.086 | 0.587 ± 0.026 | 0.464 ± 0.021 | 0.296 ± 0.004 | 0.256 ± 0.028 | 0.2 ± 0.026 | 0.193 ± 0.014 | 1.05 ± 0.087 | 1 ± 0.084 | 1.14 ± 0.12 | 1.08 ± 0.071 | 0.974 ± 0.095 | 1 ± 0.037 | 0.899 ± 0.035 | 1 ± 0.037 | 3.62 | 2.83 | 3.87 | 3.36 |
| OSHN BONE | 0.889 ± 0.016 | 0.9163 ± 0.0047 | 0.865 ± 0.035 | 0.83 ± 0.014 | 0.915 ± 0.012 | 0.891 ± 0.023 | 0.662 ± 0.13 | 0.46 ± 0.17 | 1.01 ± 0.049 | 0.989 ± 0.042 | 1.03 ± 0.044 | 1.02 ± 0.026 | 1.03 ± 0.021 | 0.979 ± 0.01 | 1 ± 0.0049 | 0.998 ± 0.014 | 3.38 | 3.21 | 3.67 | 3.32 |
| PCI30 HEADNECK | 0.916 ± 0.015 | 0.888 ± 0.076 | 0.966 ± 0.05 | 0.98 ± 0.028 | 0.747 ± 0.017 | 0.665 ± 0.036 | 0.528 ± 0.019 | 0.421 ± 0.05 | 0.958 ± 0.054 | 0.951 ± 0.062 | 1.07 ± 0.044 | 0.991 ± 0.083 | 1.05 ± 0.067 | 1.02 ± 0.072 | 1.07 ± 0.093 | 1.18 ± 0.1 | 3.14 | 3.14 | 3.58 | 3.42 |
